In paper PMC10054240, “New Inhibitors of Respiratory Syncytial Virus (RSV) Replication Based on Monoterpene-Substituted Arylcoumarins” (Molecules, 2023):
Where “and” joins values, the source holds several entries; their conditions need not be identical. Equal values may be shown once. Read-outs that look alike come from different tables or passages of the source.

Key:
RSV A strain A2 = test: Antiviral activity against RSV A strain A2 in HEp-2 cells (ELISA virus titer); format: cell-based, respiratory syncytial virus; conditions: for IC50: HEp-2, RSV A, read-out: pIC50 (-lg[IC50]) (converted); for IC50 / pIC50 (-lg[IC50]): from Table 1 values; for pIC50 (-lg[IC50]): RSV A
[1] = Cytotoxicity on non-infected HEp-2 cells, MTT assay; format: cell-based; conditions: human, non-infected HEp-2 cells, CC50 (50% cytotoxic concentration), MTT, 24 h
RSV A2 virus = test: Time-of-addition assay; format: cell-based, respiratory syncytial virus; conditions: 300 μg/mL, RSV A2, titer by ELISA
Description: Compounds 14e and 14b at a concentration of 300 μg/mL were added at different time intervals before, after, or during virus inoculation (Figure 2 and Figure 3). The time of compound addition was counted off from Point 0, i.e., the moment of virus entry into the cell. RSV A2 virus was added to cells at a time conventionally designated as […]; then, cells were kept at a temperature of 40 °C for 1 h. Next, at Point 0, unbound virus was washed off, fresh medium containing compounds at the same concentration was added, and the cells were transferred to a thermostat at 37 °C where they were incubated for 25 h. After this, medium collected from each well was used to make a series of ten-fold dilutions with fresh cell culture. The cells were incubated for 6 days. The viral titer was measured by ELISA.
Compounds were added at different time points before, after, or simultaneously with the introduction of the virus. The time of addition of the compounds was counted from Point 0, i.e., the time of entry of the virus into the cell. During the period (−1)–0, the cells together with the virus were incubated at 40 °C. All other experiments were carried out at 37 °C. RSV virus A […] was added to the cells at a time that was conventionally designated as […], after which the cells were kept for an hour at a temperature of 40 °C. Then, at Point 0, the virus was unbound. […]

HEp-2 cells = test: Cytotoxicity on non-infected HEp-2 cells, MTT assay; format: cell-based; conditions: for CC50: read-out: CC50 (50% cytotoxic concentration), MTT, 24 h
[2] = human respiratory syncytial virus
[3] = human respiratory syncytial virus, HEp-2, read-out: EC50 (50% effective concentration)
[4] = read-out: EC50 (50% effective concentration)
[5] = human respiratory syncytial virus, read-out: EC50 (50% effective concentration), RSV A strain A2, HEp-2 cells

Compound	antiviral activity against RSV A (in words) (RSV A strain A2)	IC50 (RSV A strain A2; [2])	EC50 (RSV A strain A2; [3])	CC50 at 24 h [1]	effect on viral titer depending on time of addition (in words) (RSV A2 virus)	SI (selective index) (RSV A strain A2)	pIC50 (-lg[IC50]) (RSV A strain A2)	EC50 (RSV A strain A2; [4])	CC50 (HEp-2 cells)	EC50 (RSV A strain A2; human respiratory syncytial virus, HEp-2, read-out: EC50 (50% effective concentration), RSV A strain A2, HEp-2 cells)	EC50 (RSV A strain A2; [5])	cytotoxicity (in words) (HEp-2 cells)
CC(C)=CCC/C(C)=C/COc1ccc2c(-c3ccccc3)cc(=O)oc2c1 [Compound 14a]	moderate antiviral activity	67.6 µM	67.3 ± 9.1 µM	805 ± 97.6 µM								
CC1(C)C2CC=C(COc3ccc4c(-c5ccccc5)cc(=O)oc4c3)C1C2 (stereo not shown) [Compound 14b]				591 ± 85.2 µM	reduced the viral titer at all time periods, except for prophylactic use 2 h before virus entry into cells	32.8	4.75	18 ± 0.9 µM				
CC1(C)C2CC=C(COc3ccc4c(-c5ccccc5)cc(=O)oc4c3)C1C2 (stereo not shown) [Compound 14c]	not active					3.5	3.63	234 ± 27.1 µM	813 ± 32.4 µM			
CC1(C)C2CC=C(CCOc3ccc4c(-c5ccccc5)cc(=O)oc4c3)C1C2 (stereo not shown) [Compound 14d]		83.2 µM	82.5 ± 10.3 µM	657 ± 20.4 µM		7.9						
CC1(C)[C@H]2CC=C(CCCCOc3ccc4c(-c5ccccc5)cc(=O)oc4c3)[C@@H]1C2 [Compound 14f, 7-(4-((1R,5S)-6,6-Dimethylbicyclo[3.1.1]hept-2-en-2-yl)butoxy)-4-phenyl-2H-chromen-2-one]		112 µM	111 ± 10.5 µM	1270 ± 180 µM		11.4						
CC(C)=CCC/C(C)=C/COc1ccc2c(-c3ccc(Br)cc3)cc(=O)oc2c1 [Compound 15a]		8.91 µM	8.8 ± 0.7 µM	8.8 ± 0.5 µM		1						
CC1(C)C2CC=C(COc3ccc4c(-c5ccc(Br)cc5)cc(=O)oc4c3)C1C2 (stereo not shown) [Compound 15b]				46.6 ± 8.6 µM		3	4.82	15.1 ± 1.1 µM				
CC1(C)C2CC=C(COc3ccc4c(-c5ccc(Br)cc5)cc(=O)oc4c3)C1C2 (stereo not shown) [Compound 15c]						1.9	4.31 and 4.30	48.7 ± 7.6 µM	90.8 ± 11 µM			
CC1(C)C2CC=C(CCOc3ccc4c(-c5ccc(Br)cc5)cc(=O)oc4c3)C1C2 (stereo not shown) [Compound 15d]		> 20 µM	> 20 µM	17.2 ± 2.6 µM		<0.8	4.70					
CC1(C)[C@H]2CC=C(CCCOc3ccc4c(-c5ccc(Br)cc5)cc(=O)oc4c3)[C@@H]1C2 [Compound 15e, 4-(4-Bromophenyl)-7-(3-((1R,5S)-6,6-dimethylbicyclo[3.1.1]hept-2-en-2-yl)propoxy)-2H-chromen-2-one]		> 12.6 µM	> 12.5 µM	12.5 ± 1.4 µM		<1	4.90					
CC1(C)[C@H]2CC=C(CCCCOc3ccc4c(-c5ccc(Br)cc5)cc(=O)oc4c3)[C@@H]1C2 [Compound 15f, 4-(4-Bromophenyl)-7-(4-((1R,5S)-6,6-dimethylbicyclo[3.1.1]hept-2-en-2-yl)butoxy)-2H-chromen-2-one]		9.55 µM	9.5 ± 0.8 µM	91.3 ± 9.2 µM								
O=c1cc(-c2ccc(Br)cc2)c2ccc(OCc3ccccc3)cc2o1 [Compound 15g]		83.2 µM	84 ± 3 µM	265 ± 29.5 µM		3.2						
CC(C)=CCC/C(C)=C/COc1ccc2c(-c3ccc(F)cc3)cc(=O)oc2c1 [Compound 16a]		47.9 µM	47.4 ± 8 µM	273 ± 16 µM		5.8						
CC1(C)C2CC=C(COc3ccc4c(-c5ccc(F)cc5)cc(=O)oc4c3)C1C2 (stereo not shown) [Compound 16b]						2.9	3.99	103 ± 7.1 µM	297 ± 8.5 µM			
CC1(C)C2CC=C(COc3ccc4c(-c5ccc(F)cc5)cc(=O)oc4c3)C1C2 (stereo not shown) [Compound 16c]						1.4	4.84	14.3 ± 2.9 µM	20.5 ± 4.9 µM			
CC1(C)[C@H]2CC=C(CCCOc3ccc4c(-c5ccc(F)cc5)cc(=O)oc4c3)[C@@H]1C2 [Compound 16e, 7-(3-((1R,5S)-6,6-Dimethylbicyclo[3.1.1]hept-2-en-2-yl)propoxy)-4-(4-fluorophenyl)-2H-chromen-2-one]		110 µM	110 ± 10.4 µM	996 ± 8.2 µM		9						
CC1(C)[C@H]2CC=C(CCCCOc3ccc4c(-c5ccc(F)cc5)cc(=O)oc4c3)[C@@H]1C2 [Compound 16f, 7-(4-((1R,5S)-6,6-Dimethylbicyclo[3.1.1]hept-2-en-2-yl)butoxy)-4-(4-fluorophenyl)-2H-chromen-2-one]		9.33 µM	9 µM	109 ± 10.5 µM		11.8		9.2 ± 1.1 µM				
O=c1cc(-c2ccc(F)cc2)c2ccc(OCc3ccccc3)cc2o1 [Compound 16g, 7-(Benzyloxy)-4-(4-fluorophenyl)-2H-chromen-2-one]		692 µM		655 ± 29.7 µM		<0.9	3.20			> 690 µM		
COc1ccc(-c2cc(=O)oc3cc(OC/C=C(\C)CCC=C(C)C)ccc23)cc1 [Compound 17a]		58.9 µM	58.3 ± 8.5 µM	339 ± 26.3 µM		5.8	4.20					
COc1ccc(-c2cc(=O)oc3cc(OCC4=CCC5CC4C5(C)C)ccc23)cc1 (stereo not shown) [Compound 17b]		> 12.6 µM	> 12 µM	12.4 ± 2.8 µM		<1	4.90					
COc1ccc(-c2cc(=O)oc3cc(OCC4=CCC5CC4C5(C)C)ccc23)cc1 (stereo not shown) [Compound 17c]						<1	< 4.8 and 4.80	> 15 µM	14.7 ± 2.9 µM			
COc1ccc(-c2cc(=O)oc3cc(OCCC4=CCC5CC4C5(C)C)ccc23)cc1 (stereo not shown) [Compound 17d]		64.6 µM	64.1 ± 5.4 µM	677 ± 22.9 µM		10.6						
COc1ccc(-c2cc(=O)oc3cc(OCCCC4=CC[C@H]5C[C@@H]4C5(C)C)ccc23)cc1 [Compound 17e, 7-(3-((1R,5S)-6,6-Dimethylbicyclo[3.1.1]hept-2-en-2-yl)propoxy)-4-(4-methoxyphenyl)-2H-chromen-2-one]				> 100 µM							35.9 ± 5.7 µM	
COc1ccc(-c2cc(=O)oc3cc(OCCCCC4=CC[C@H]5C[C@@H]4C5(C)C)ccc23)cc1 [Compound 17f, 7-(4-((1R,5S)-6,6-Dimethylbicyclo[3.1.1]hept-2-en-2-yl)butoxy)-4-(4-methoxyphenyl)-2H-chromen-2-one]		> 12.6 µM	10 µM	117 ± 7 µM			4.97	10.8 ± 1 µM				
COc1ccc(-c2cc(=O)oc3cc(OCc4ccccc4)ccc23)cc1 [Compound 17g]		> 17 µM	> 17 µM	16.8 ± 3.2 µM		<1	4.80					
CC1(C)[C@H]2CC=C(CNc3ccc4c(-c5ccccc5)cc(=O)oc4c3)[C@@H]1C2 [Compound 21, 7-(((1R,5S)-6,6-Dimethylbicyclo[3.1.1]hept-2-en-2-yl)methylamino)-4-phenyl-2H-chromen-2-one]		> 12.6 µM	> 13 µM	20.5 ± 1.4 µM			4.90					abrupt increase in cytotoxicity
CC1(C)[C@H]2CC=C(CCNc3ccc4c(-c5ccccc5)cc(=O)oc4c3)[C@@H]1C2 [Compound 22, 7-(2-((1R,5S)-6,6-Dimethylbicyclo[3.1.1]hept-2-en-2-yl)ethylamino)-4-phenyl-2H-chromen-2-one]		79.4 µM	79.9 ± 7.4 µM	480 ± 18.4 µM		6						
NC(=O)c1ncn([C@@H]2O[C@H](CO)[C@@H](O)[C@H]2O)n1 [Ribavirin, reference compound]				> 4000 µM							80.1 ± 13.5 µM	
